Assay results: EPA's ToxValDB 9.5 (doi:10.2903/j.efsa.2013.3147)

Experiments:
Canidae = settings: oral, Dog Other, clinical chemistry

With `COc1cc(C)c(C(=O)c2c(OC)ncc(Cl)c2C)c(OC)c1OC` [Pyriofenone] the LD50 (Rattus norvegicus; acute, oral, mortality) was > 2000 mg/kg-day, the NOAEL (Rattus norvegicus; chronic, duration: 2 years, hematological) was 7.25 mg/kg-day and the NOAEL (Rattus norvegicus; reproduction developmental, hematological) was 64.1 mg/kg-day. For the same compound, the NOAEL (Rattus norvegicus; subchronic, duration: 90 days, oral, organ weight) was 17.9 mg/kg-day, the NOAEL (Anas platyrhynchos; reproductive, reproduction) was 119 mg/kg-day and the LC50 (Anas platyrhynchos; short-term, oral, feed, mortality) was > 1290 mg/kg-day. The NOAEL (Canidae; chronic, duration: 1 years) was 13.7 mg/kg-day, the NOAEL (Canidae; subchronic, duration: 90 days) was 15 mg/kg-day and the LC50 (Colinus virginianus; acute, oral, diet, mortality) was > 980 mg/kg-day. For the same compound, the LD50 (Colinus virginianus; acute, oral, mortality) was > 2000 mg/kg-day and the NOAEL (Colinus virginianus; reproduction developmental, reproduction) was 94 mg/kg-day.
